pIC50: −log10 of the molar value. Calls of active or inactive are those of the source. No cut-off for these calls is given here.
What was measured:
HeLa = assay: Compound was evaluated for cell growth inhibition against HeLa cell line by irradiation in the presence of examined compound; assay type: functional, cell-based; conditions: Homo sapiens, light or radiation study
Cavia porcellus [1] = species on record: Cavia porcellus; assay: Compound was tested for skin photosensitizing potency in guinea pig, after exposure to 50 microg cm e-2,and 20 kJ m e-2 of UVA; Medium; assay type: functional, organism-based
Nucleic Acid [2] = assay: Binding parameters of complexes between compound and DNA; assay type: nucleic-acid assay; conditions: Bos taurus
HL-60 = assay: Compound was evaluated for cell growth inhibition against HL 60 cell line by irradiation in the presence of examined compound; assay type: functional, cell-based; conditions: Homo sapiens, HL-60, light or radiation study
A-431 = assay: Compound was evaluated for cell growth inhibition against A 431 cell line by irradiation in the presence of examined compound; assay type: functional, cell-based; conditions: Homo sapiens, A-431, light or radiation study
Nucleic Acid [3] = assay: Rate constant of the photoreaction between compound and DNA; assay type: nucleic-acid assay; conditions: Bos taurus
Cavia porcellus [4] = assay: Compound was tested for skin photosensitizing potency in guinea pig, after exposure to 50 microg cm e-2,and 20 kJ m e-2 of UVA; strong(with edema); assay type: functional, organism-based
Cavia porcellus [5] = species on record: Cavia porcellus; assay: Compound was tested for skin photosensitizing potency in guinea pig, after exposure to 50 microg cm e-2,and 20 kJ m e-2 of UVA; Absent; assay type: functional, organism-based

For COc1c2cc(C)c(=O)oc2cc2occ(C)c12, the pIC50 (HeLa) was 5.17, the Formation of erythema (Cavia porcellus [1]) was “Medium” and the K (Nucleic Acid [2]) was 920 M⁻¹. The pIC50 (HL-60) was 5.57, the pIC50 (A-431) was 5.11 and the Rate constant (Nucleic Acid [3]) was 0.32 min⁻¹.
COc1c2occc2cc2ccc(=O)oc12 [METHOXSALEN] showed a pIC50 (HeLa) of 5.50, a pIC50 (HL-60) of 6.12 and a pIC50 (A-431) of 5.61. The Formation of erythema (Cavia porcellus [4]) was “Active”.
For COc1c2c(C)coc2cc2oc(=O)cc(C)c12, the pIC50 (HeLa) was 5.75, the K (Nucleic Acid [2]) was 630 M⁻¹ and the pIC50 (HL-60) was 6.17. For the same compound, the pIC50 (A-431) was 5.87, the Rate constant (Nucleic Acid [3]) was 2.1 min⁻¹ and the Formation of erythema (Cavia porcellus [5]) was “inactive”.
COc1cc2occ(C)c2c2oc(=O)cc(C)c12 was tested, and the pIC50 (HeLa) was 5.90, the K (Nucleic Acid [2]) was 3700 M⁻¹ and the pIC50 (HL-60) was 6.16. For the same compound, the pIC50 (A-431) was 5.88, the Rate constant (Nucleic Acid [3]) was 2.2 min⁻¹ and the Formation of erythema (Cavia porcellus [5]) was “inactive”.
COc1cc2occ(C)c2c2oc(=O)c(C)cc12 gave a pIC50 (HeLa) of 5.97, a K (Nucleic Acid [2]) of 3100 M⁻¹ and a pIC50 (HL-60) of 6.23. For the same compound, the pIC50 (A-431) was 5.86, the Rate constant (Nucleic Acid [3]) was 0.17 min⁻¹ and the Formation of erythema (Cavia porcellus [5]) was “inactive”.
COc1cc2occc2c2oc(=O)ccc12 [ISOBERGAPTENE] showed a pIC50 (HeLa) of less than 5.00, a pIC50 (HL-60) of less than 5.00 and a pIC50 (A-431) of 5.11. The Formation of erythema (Cavia porcellus [5]) was “inactive”.
